{
  "source": "patent US10583178B2",
  "about": "“Compositions comprising sulforaphane or a sulforaphane precursor and a mushroom extract or powder” (NUTRAMAX LABORATORIES, INC., priority 2012, dated 2020)",
  "key": {"[1]": {"system": "broccoli sprout-derived myrosinase", "assay": "Consumption of glucoraphanin by myrosinase as a function of ascorbic acid concentration", "format": "biochemical", "details": "38° C.", "method": "About 250 mg of broccoli seed extract containing about 12% (w/w) glucoraphanin were subjected to hydrolysis by a fixed concentration of broccoli sprout-derived myrosinase in the presence of variable concentration of ascorbic acid, ranging from 0 to 600 μmoles/Liter. The reaction mixtures were thermostated at 38° C.; aliquots were withdrawn every 15 minutes for 60 minutes, and concentration of glucoraphanin determined chromatographically. The rate of glucoraphanin consumption was interpreted as the rate its conversion to sulforaphane. Graphical representation of glucoraphanin content reduction as a function of increasing ascorbic acid concentration results in a series of linear plots; the slopes of the linear regression lines reflect the rate of glucoraphanin consumption, in moles/minute. It is apparent that in the presence of 600 μmoles/Liter concentration of ascorbic acid, the reaction rate increased 13-fold relative to that which proceeded in the absence of modulatory effects of ascorbic acid."}, "myrosinase": {"system": "myrosinase", "assay": "Conversion of glucoraphanin to sulforaphane in Simulated Intestinal Fluid", "format": "biochemical, broccoli", "details": "38° C., 0.25 to 1.00 mmol/Liter, especially at earlier stages", "method": "Simulated Intestinal Fluid (SIF) powder, a commercially supplied concentrate closely approximating the human intestinal content in terms of composition, pH and ionic strength, was used. The experiment utilized a USP Dissolution Apparatus 2 (paddles), where into six dissolution vessels 500 mL of Simulated Intestinal Fluid was dispensed, along with 150 mg of freeze-dried broccoli sprout powder as a source of myrosinase. […] Aliquots were withdrawn every 15 minutes, and assayed for sulforaphane."}, "[2]": {"system": "Nad(P)H:quinone oxidoreductase 1 (NQO-1) gene expression", "assay": "NQO-1 gene expression by quantitative RT-PCR in macrophage cell line RAW 264.7", "format": "cell-based", "details": "0.5 μM SFN, RAW 264.7, 24 hours", "method": "The following study was conducted to determine the effect of the combination of sulforaphane and a maitake mushroom extract containing 20% β-glucans on gene expression of Nad(P)H:quinone oxidoreductase 1 (NQO-1). NQO-1 encodes a protein that is able to metabolize estrogen quinones, preventing them from forming DNA adducts that cause mutations and ultimately carcinogenesis. An increase in NQO-1 expression is favorable for breast, colon, liver, lung, skin and prostate health.\nIn the study, the macrophage cell line RAW 264.7 was treated with DMSO (vehicle control), sulforaphane (SFN), maitake mushroom extract having about 20% beta-glucan content (Maitake), or the combination of sulforaphane and maitake mushroom extract, for 24 hours. […] Gene expression of NQO-1 gene expression was analyzed via quantitative RT-PCR. The results, which are depicted in FIG. 5, show the following: […]\nIn the study, the macrophage cell line RAW 264.7 was treated with DMSO (vehicle control), sulforaphane (SFN), shiitake mushroom extract having at least 20% alpha-glucan content (Shiitake), or the combination of sulforaphane and shiitake mushroom extract, for 24 hours. […] Gene expression of NQO-1 gene expression was analyzed via quantitative RT-PCR. […]"}, "[3]": {"system": "NAD(P)H:quinone oxidoreductase (NQO1)", "details": "oral administration, mammary epithelium; cited from earlier work"}, "heme oxygenase-1 (HO-1)": {"system": "heme oxygenase-1 (HO-1)", "details": "oral administration, mammary epithelium; cited from earlier work"}},
  "data": [
    {"smiles": "O=C1O[C@H]([C@@H](O)CO)C(O)=C1O", "note": "[Ascorbic Acid, ascorbic acid]", "values": [
      {"measurement": "glucoraphanin content", "setting": "[1]; 50 μM ascorbic acid, 0 min", "value": 93.36, "unit": "µmol"},
      {"measurement": "glucoraphanin content", "setting": "[1]; 50 μM ascorbic acid, 15 min", "value": 89.20, "unit": "µmol"},
      {"measurement": "glucoraphanin content", "setting": "[1]; 50 μM ascorbic acid, 30 min", "value": 84.24, "unit": "µmol"},
      {"measurement": "glucoraphanin content", "setting": "[1]; 50 μM ascorbic acid, 45 min", "value": 80.30, "unit": "µmol"},
      {"measurement": "glucoraphanin content", "setting": "[1]; 50 μM ascorbic acid, 60 min", "value": 76.36, "unit": "µmol"},
      {"measurement": "glucoraphanin content", "setting": "[1]; 125 μM ascorbic acid, 0 min", "value": 93.36, "unit": "µmol"},
      {"measurement": "glucoraphanin content", "setting": "[1]; 125 μM ascorbic acid, 15 min", "value": 84.52, "unit": "µmol"},
      {"measurement": "glucoraphanin content", "setting": "[1]; 125 μM ascorbic acid, 30 min", "value": 75.92, "unit": "µmol"},
      {"measurement": "glucoraphanin content", "setting": "[1]; 125 μM ascorbic acid, 45 min", "value": 68.09, "unit": "µmol"},
      {"measurement": "glucoraphanin content", "setting": "[1]; 125 μM ascorbic acid, 60 min", "value": 59.41, "unit": "µmol"},
      {"measurement": "glucoraphanin content", "setting": "[1]; 250 μM Filtered ascorbic acid, 0 min", "value": 93.36, "unit": "µmol"},
      {"measurement": "glucoraphanin content", "setting": "[1]; 250 μM Filtered ascorbic acid, 15 min", "value": 86.31, "unit": "µmol"},
      {"measurement": "glucoraphanin content", "setting": "[1]; 250 μM Filtered ascorbic acid, 30 min", "value": 79.44, "unit": "µmol"},
      {"measurement": "glucoraphanin content", "setting": "[1]; 250 μM Filtered ascorbic acid, 45 min", "value": 71.94, "unit": "µmol"},
      {"measurement": "glucoraphanin content", "setting": "[1]; 250 μM Filtered ascorbic acid, 60 min", "value": 65.18, "unit": "µmol"},
      {"measurement": "glucoraphanin content", "setting": "[1]; 250 μM ascorbic acid, 0 min", "value": 93.36, "unit": "µmol"},
      {"measurement": "glucoraphanin content", "setting": "[1]; 250 μM ascorbic acid, 15 min", "value": 80.95, "unit": "µmol"},
      {"measurement": "glucoraphanin content", "setting": "[1]; 250 μM ascorbic acid, 30 min", "value": 69.06, "unit": "µmol"},
      {"measurement": "glucoraphanin content", "setting": "[1]; 250 μM ascorbic acid, 45 min", "value": 57.63, "unit": "µmol"},
      {"measurement": "glucoraphanin content", "setting": "[1]; 250 μM ascorbic acid, 60 min", "value": 45.76, "unit": "µmol"},
      {"measurement": "glucoraphanin content", "setting": "[1]; 400 μM ascorbic acid, 0 min", "value": 93.36, "unit": "µmol"},
      {"measurement": "glucoraphanin content", "setting": "[1]; 400 μM ascorbic acid, 15 min", "value": 78.32, "unit": "µmol"},
      {"measurement": "glucoraphanin content", "setting": "[1]; 400 μM ascorbic acid, 30 min", "value": 62.78, "unit": "µmol"},
      {"measurement": "glucoraphanin content", "setting": "[1]; 400 μM ascorbic acid, 45 min", "value": 47.67, "unit": "µmol"},
      {"measurement": "glucoraphanin content", "setting": "[1]; 400 μM ascorbic acid, 60 min", "value": 33.15, "unit": "µmol"},
      {"measurement": "glucoraphanin content", "setting": "[1]; 600 μM ascorbic acid, 0 min", "value": 93.36, "unit": "µmol"},
      {"measurement": "glucoraphanin content", "setting": "[1]; 600 μM ascorbic acid, 15 min", "value": 75.02, "unit": "µmol"},
      {"measurement": "glucoraphanin content", "setting": "[1]; 600 μM ascorbic acid, 30 min", "value": 55.66, "unit": "µmol"},
      {"measurement": "glucoraphanin content", "setting": "[1]; 600 μM ascorbic acid, 45 min", "value": 37.50, "unit": "µmol"},
      {"measurement": "glucoraphanin content", "setting": "[1]; 600 μM ascorbic acid, 60 min", "value": 22.09, "unit": "µmol"},
      {"measurement": "relation of sulforaphane yield to ascorbic acid concentration", "setting": "myrosinase", "value": "direct correlation"}
    ]},
    {"smiles": "C[S+]([O-])CCCCN=C=S", "note": "(stereo not shown) [SFN, 1-isothiocyanato-4-methylsulfinylbutane]", "values": [
      {"measurement": "Fold Increase in NQO-1 gene expression", "setting": "[2]", "value": 12.96, "unit": "fold"},
      {"measurement": "increase in NQO1 enzymatic activity", "setting": "[3]", "value": 3, "unit": "fold"},
      {"measurement": "elevated immunostaining of HO-1", "setting": "heme oxygenase-1 (HO-1)", "value": 4, "unit": "fold"}
    ]}
  ]
}
